{"source": "ChEMBL document CHEMBL1134918", "about": "“General solid-phase method to prepare novel cyclic ketone inhibitors of the cysteine protease cruzain” (Bioorg Med Chem Lett, 2002)", "key": {"Cruzipain": {"molecular_target": "Cruzipain (Trypanosoma cruzi, UniProt P25779)", "sequence (P25779 whole entry)": "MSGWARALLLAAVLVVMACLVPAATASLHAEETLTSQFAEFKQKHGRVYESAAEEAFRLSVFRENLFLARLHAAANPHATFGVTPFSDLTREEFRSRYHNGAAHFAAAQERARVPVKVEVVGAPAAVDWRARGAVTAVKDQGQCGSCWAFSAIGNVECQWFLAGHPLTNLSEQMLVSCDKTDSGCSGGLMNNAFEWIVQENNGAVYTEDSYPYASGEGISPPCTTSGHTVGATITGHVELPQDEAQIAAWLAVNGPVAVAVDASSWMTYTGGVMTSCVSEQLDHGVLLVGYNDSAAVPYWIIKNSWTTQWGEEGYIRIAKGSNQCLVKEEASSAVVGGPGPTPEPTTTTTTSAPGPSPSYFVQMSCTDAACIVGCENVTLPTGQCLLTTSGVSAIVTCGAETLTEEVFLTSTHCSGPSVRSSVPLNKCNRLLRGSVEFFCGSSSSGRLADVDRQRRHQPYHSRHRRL", "assay": "Affinity for cysteine protease (Cruzipain) of Chagas' disease"}, "Cathepsin B": {"molecular_target": "Cathepsin B (Homo sapiens, UniProt P07858)", "assay": "Affinity for human Cathepsin B"}, "Procathepsin L": {"molecular_target": "Procathepsin L (Homo sapiens, UniProt P07711)", "sequence (P07711 whole entry)": "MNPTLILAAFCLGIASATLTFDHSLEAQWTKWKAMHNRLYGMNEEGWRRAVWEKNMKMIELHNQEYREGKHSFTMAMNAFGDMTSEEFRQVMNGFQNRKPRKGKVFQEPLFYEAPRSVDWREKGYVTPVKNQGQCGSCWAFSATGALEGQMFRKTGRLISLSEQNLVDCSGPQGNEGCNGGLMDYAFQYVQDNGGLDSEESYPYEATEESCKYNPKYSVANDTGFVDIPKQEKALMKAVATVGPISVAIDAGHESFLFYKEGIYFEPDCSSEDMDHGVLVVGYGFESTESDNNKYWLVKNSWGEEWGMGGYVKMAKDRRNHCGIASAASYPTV", "assay": "Affinity for human Cathepsin L"}}, "note": "pKi: −log10 of the molar value.", "data": [{"molecule": "O=C(N[C@@H](Cc1ccccc1)C(=O)NC1CC(=O)N(CCc2ccccc2)CC1=O)OCc1ccccc1", "note": "(stereo in doubt)", "values": [{"measurement": "pKi", "setting": "Cruzipain", "result": 7.27}]}, {"molecule": "CC(C)C[C@H](NC(=O)OCc1ccccc1)C(=O)NC1CN(C(=O)[C@H](CC(C)C)NC(=O)OCc2ccccc2)CC1=O", "note": "(stereo partly specified)", "values": [{"measurement": "pKi", "setting": "Cathepsin B", "result": "< 6.00"}]}, {"molecule": "CC(C)C[C@@H](C(=O)NCC(=O)CNS(=O)(=O)c1ccc(Oc2ccccc2)cc1)c1cccc(-c2ccccc2)c1", "values": [{"measurement": "pKi", "setting": "Cathepsin B", "result": "< 5.00"}]}, {"molecule": "COCCN1CC(=O)C(NC(=O)[C@H](Cc2ccccc2)NC(=O)OCc2ccccc2)CC1=O", "note": "(stereo partly specified)", "values": [{"measurement": "pKi", "setting": "Cathepsin B", "result": "< 5.00"}, {"measurement": "pKi", "setting": "Cruzipain", "result": 6.01}, {"measurement": "pKi", "setting": "Procathepsin L", "result": 6.06}]}, {"molecule": "CC(C)N1CC(=O)C(NC(=O)[C@H](Cc2ccccc2)NC(=O)OCc2ccccc2)CC1=O", "note": "(stereo partly specified)", "values": [{"measurement": "pKi", "setting": "Cathepsin B", "result": 4.89}, {"measurement": "pKi", "setting": "Cruzipain", "result": 6.42}, {"measurement": "pKi", "setting": "Procathepsin L", "result": 6.22}]}, {"molecule": "O=C(N[C@@H](Cc1ccccc1)C(=O)NC1CC(=O)N(CCCc2ccccc2)CC1=O)OCc1ccccc1", "note": "(stereo in doubt)", "values": [{"measurement": "pKi", "setting": "Cruzipain", "result": 7.79}]}, {"molecule": "CCCN1CC(=O)C(NC(=O)[C@H](Cc2ccccc2)NC(=O)OCc2ccccc2)CC1=O", "note": "(stereo partly specified)", "values": [{"measurement": "pKi", "setting": "Cathepsin B", "result": 4.98}, {"measurement": "pKi", "setting": "Cruzipain", "result": 6.44}, {"measurement": "pKi", "setting": "Procathepsin L", "result": 6.63}]}, {"molecule": "CC(C)CN1CC(=O)C(NC(=O)[C@H](Cc2ccccc2)NC(=O)OCc2ccccc2)CC1=O", "note": "(stereo partly specified)", "values": [{"measurement": "pKi", "setting": "Cathepsin B", "result": 5.34}, {"measurement": "pKi", "setting": "Cruzipain", "result": 6.56}, {"measurement": "pKi", "setting": "Procathepsin L", "result": 6.52}]}, {"molecule": "O=C(N[C@@H](Cc1ccccc1)C(=O)NC1CC(=O)N(CCCc2ccccc2)CC1=O)OCc1ccccc1", "note": "(stereo in doubt; 4e)", "values": [{"measurement": "pKi", "setting": "Cathepsin B", "result": 6.16}, {"measurement": "pKi", "setting": "Cruzipain", "result": 7.80}, {"measurement": "pKi", "setting": "Procathepsin L", "result": 7.72}]}, {"molecule": "O=C(N[C@@H](Cc1ccccc1)C(=O)NC1CC(=O)N(Cc2ccccc2)CC1=O)OCc1ccccc1", "note": "(stereo in doubt; 4g)", "values": [{"measurement": "pKi", "setting": "Cathepsin B", "result": 4.88}, {"measurement": "pKi", "setting": "Cruzipain", "result": 6.69}, {"measurement": "pKi", "setting": "Procathepsin L", "result": 6.42}]}, {"molecule": "O=C(N[C@@H](Cc1ccccc1)C(=O)NC1CC(=O)N(CCc2ccccc2)CC1=O)OCc1ccccc1", "note": "(stereo in doubt; 4f)", "values": [{"measurement": "pKi", "setting": "Cathepsin B", "result": 5.21}, {"measurement": "pKi", "setting": "Cruzipain", "result": 7.28}, {"measurement": "pKi", "setting": "Procathepsin L", "result": 7.03}]}, {"molecule": "O=C(N[C@@H](Cc1ccccc1)C(=O)NC1CC(=O)N(Cc2ccccc2)CC1=O)OCc1ccccc1", "note": "(stereo in doubt)", "values": [{"measurement": "pKi", "setting": "Cruzipain", "result": 6.69}]}]}
